Assay results taken from the supplement of paper PMC10307832.

How the values were obtained:
Experiment in all cases: relative viability (nuclei count vs DMSO), 5 days (fraction); higher = more cells survive
AZD5582 + Palbociclib = compound: C[C@@H](C(=O)N[C@@H](C1CCCCC1)C(=O)N2CCC[C@H]2C(=O)N[C@@H]3[C@@H](CC4=CC=CC=C34)OCC#CC#CCO[C@@H]5CC6=CC=CC=C6[C@@H]5NC(=O)[C@@H]7CCCN7C(=O)[C@H](C8CCCCC8)NC(=O)[C@H](C)NC)NC [AZD5582] + CC(=O)c1c(C)c2cnc(Nc3ccc(N4CCNCC4)cn3)nc2n(C2CCCC2)c1=O [Palbociclib] (partner 0.5 µM)
In short: (§1)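 Lung cancer cell lines in 1536-well plates got either a single drug or a fixed anchor-drug dose together with five library-drug doses (not always all listed) in √10 steps, by pin tool, on the day after seeding. Nuclei were counted after 5 days, and relative viability is the treated-to-vehicle ratio of nuclei counts. Values are medians of duplicate plates.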

AZD5582 + Navitoclax = compound: C[C@@H](C(=O)N[C@@H](C1CCCCC1)C(=O)N2CCC[C@H]2C(=O)N[C@@H]3[C@@H](CC4=CC=CC=C34)OCC#CC#CCO[C@@H]5CC6=CC=CC=C6[C@@H]5NC(=O)[C@@H]7CCCN7C(=O)[C@H](C8CCCCC8)NC(=O)[C@H](C)NC)NC [AZD5582] + CC1(C)CCC(c2ccc(Cl)cc2)=C(CN2CCN(c3ccc(C(=O)NS(=O)(=O)c4ccc(N[C@H](CCN5CCOCC5)CSc5ccccc5)c(S(=O)(=O)C(F)(F)F)c4)cc3)CC2)C1 [Navitoclax] (partner 0.5 µM)
In short: as §1

[1] = compound: Cn1nnc2c(C(N)=O)ncn2c1=O [Temozolomide] + C[C@]1(O)C[C@@H](c2nc(-c3ccc4ccc(-c5ccccc5)nc4c3)c3c(N)nccn32)C1 [Linsitinib] (partner 1 µM)
In short: as §1

[2] = compound: Cn1nnc2c(C(N)=O)ncn2c1=O [Temozolomide] + C[C@@H](Oc1cc(-c2cnn(C3CCNCC3)c2)cnc1N)c1c(Cl)ccc(F)c1Cl [Crizotinib] (partner 1 µM)
In short: as §1

Cell Line	relative viability (AZD5582 + Palbociclib; first compound 0.001581 µM)	relative viability (AZD5582 + Palbociclib; first compound 0.005 µM)	relative viability (AZD5582 + Palbociclib; first compound 0.01581 µM)	relative viability (AZD5582 + Palbociclib; first compound 0.05 µM)	relative viability (AZD5582 + Navitoclax; first compound 0.001581 µM)	relative viability (AZD5582 + Navitoclax; first compound 0.005 µM)	relative viability (AZD5582 + Navitoclax; first compound 0.01581 µM)	relative viability (AZD5582 + Navitoclax; first compound 0.05 µM)	relative viability ([1]; first compound 0.2 µM)	relative viability ([1]; first compound 0.6325 µM)	relative viability ([1]; first compound 2 µM)	relative viability ([1]; first compound 6.325 µM)	relative viability ([1]; first compound 20 µM)	relative viability ([2]; first compound 0.2 µM)	relative viability ([2]; first compound 0.6325 µM)	relative viability ([2]; first compound 2 µM)	relative viability ([2]; first compound 6.325 µM)	relative viability ([2]; first compound 20 µM)
LOU-NH91	0.529	0.54	0.487	0.532	0.652	0.724	0.704	0.678	0.534	0.955	1.01	0.932	0.505	0.557	0.758	0.75	0.704	0.532
LU99A	0.455	0.465	0.412	0.534	0.882	0.998	0.805	0.976	0.595	0.514	0.551	0.564	0.572	0.592	0.601	0.6	0.557	0.515
LXF-289	0.575	0.585	0.577	0.598	0.948	0.935	0.919	0.934	0.933	0.939	0.954	0.938	0.876	0.825	0.82	0.761	0.791	0.76
NCI-H23	0.393	0.374	0.419	0.305	0.594	0.512	0.721	0.778	0.596	0.541	0.698	0.668	0.5	0.464	0.528	0.509	0.432	0.547
NCI-H322M	0.526	0.521	0.456	0.605	1.15	1.32	1.14	1.4		1.02	1.02	0.959	0.665		0.976	1	0.882	0.715
NCI-H441	0.232	0.224	0.206	0.187	0.639	0.543	0.453	0.518	0.651	0.601	0.548	0.451	0.529	0.717	0.824	0.775	0.766	0.78
NCI-H460	0.102	0.189	0.211	0.148	1.08	1.03	1.06	1.03	0.959	0.801	0.79	0.727	0.877	0.963	0.784	0.973	0.861	0.888
NCI-H520	0.193	0.256	0.238	0.223	1.07	1.15	1.1	1.15	1.03	0.904	0.98	0.941	1.04	0.763	0.955	0.811	0.939	0.947
NCI-H647	0.26	0.39	0.394	0.387	1.02	1.09	0.919	1.27	1.27	1.2	1.15	0.776	0.295	1.3	1.1	1.09	0.85	0.318
NCI-H727	0.612	0.647	0.635	0.614	0.409	0.426	0.366	0.483	0.287	0.329	0.196	0.224	0.233	0.876	0.73	0.812	0.791	0.763
NCI-H838	0.214	0.257	0.191	0.213	1.09	1.2	1.05	1.18	1.03	1.05	1.03	1.08	1.09	0.876	0.888	0.894	0.808	0.869
NCI-H1355	0.378	0.415	0.386	0.357	0.926	0.951	0.954	1.01	0.713	0.859	0.796	0.883	0.794	1.11	1.13	1.09	1.11	0.97
NCI-H1437	0.266	0.307	0.278	0.31	1.07	1.09	1.05	1.04	1.15	1.02	1.11	1.01	1.14	0.94	1.03	0.968	0.995	0.999
NCI-H1651	0.489	0.52	0.492	0.608	0.981	1	1.21	1.14	0.998	0.99	1.14	1.04	0.969	0.8	0.869	0.818	0.85	0.864
NCI-H1666	0.678	0.579	0.575	0.661	0.823	0.859	1.11	0.837	0.69	0.713	0.616	0.688	0.482	0.888	0.858	0.698	0.648	0.518
NCI-H1734	0.295	0.356	0.366	0.333	0.791	0.866	0.886	0.954	0.824	0.811	0.986	0.865	0.845	0.707	0.704	0.684	0.647	0.656
NCI-H1755	0.449	0.484	0.453	0.526	0.933	0.973	1.01	1	1.01	0.98	1.04	1	0.801	1	0.894	0.894	0.805	0.678
